In patent publication US20080318943A1, “Compounds and Uses Thereof - 848” (ASTRAZENECA AB, priority 2007, published 2008):

What was measured:
GABAA receptor α2β3γ2 = target: T1, GABAA receptor α2β3γ2 (Homo sapiens, UniProt P18507+P47869); experiment: Two-electrode voltage-clamp potentiation of GABA EC10 current in Xenopus oocytes, GABAA2; format: cell-based; conditions: percentage potentiation of GABA EC10 current divided by that of diazepam
T1 construct: expressed in transfected cells; host or cells: Xenopus laevis oocytes injected with cRNA
Outline: (§1)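 Human GABAA receptors expressed in Xenopus oocytes by cRNA injection (α:β:γ molar ratio ~1:1:10 for α1β2γ2, 1:1:1 for α2β3γ2), recorded 2-10 days later by two-electrode voltage clamp at −60 mV in ND-96, pH 7.5. Modulator preapplied 30 s before GABA at per-oocyte EC10. Peak-current percent potentiation over GABA alone, normalised to diazepam.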

GABAA receptor α1β2γ2 = target: T2, GABAA receptor α1β2γ2 (Homo sapiens, UniProt P14867+P18507); experiment: Two-electrode voltage-clamp potentiation of GABA EC10 current in Xenopus oocytes, GABAA1; format: cell-based; conditions: percentage potentiation of GABA EC10 current divided by that of diazepam
T2 construct: expressed in transfected cells; host or cells: Xenopus laevis oocytes injected with cRNA
Outline: as §1

[1] = target: T3, GABAA2 receptors (α2, β3, γ2 receptor subunits transfected into Sf9 cells) (Homo sapiens, UniProt P18507+P47869); experiment: GABAA2 Binding Method ([3H]-Flunitrazepam displacement); conditions: [3H]-Flunitrazepam ~2 nM, α2β3γ2 Sf9 membranes, 1 hr at 4° C.
T3 construct: host or cells: Sf9 cells (membranes)
Outline: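 Membranes from Sf9 cells expressing α2β3γ2 GABAA receptors incubated with ~2 nM (final) [3H]-flunitrazepam and test compound 1 h at 4 °C, then filtered on GF/B plates with cold-buffer washes. Flumazenil-defined controls; percent of control, IC50 and Ki calculated.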

[2] = EEG protocol (Method JJ), spontaneous EEG in behaving rats; format: in vivo, Sprague Dawley rats
From the text: In another embodiment, certain compounds of the invention may be useful in treating schizophrenia. In a particular embodiment, certain compounds of the invention may be useful in treating cognitive disorders associated with schizophrenia. The existing non-selective GABAergic agents are generally not suitable for treating information/cognitive processing deficits in schizophrenia due to the unacceptable competing side effects, such as overt sedation and memory impairment. Certain compounds of the invention are capable of selective modification of function at the specific GABAergic synapses affected by the schizophrenic disease state. Therefore, these certain compounds of the invention acting selectively at GABAA α2 subunits may be used for treating cognitive deficits in schizophrenia.
Subjects: Sprague Dawley rats weighing 300-400 g at time of surgery are used as subjects. Rats are maintained>1 week in AstraZeneca vivarium prior to surgical procedures. Rats are housed singly, maintained on a 12:12 light:dark cycle, and fed and watered ad lib for a period of>14 days following surgery. […]
During compound testing sessions, animals are initially allowed to re-acclimate to the operant chamber for 10-20′ minutes prior to a 30-minute baseline session in which performance and EEG are continuously monitored. […]

T2 sequence (P14867 28-456): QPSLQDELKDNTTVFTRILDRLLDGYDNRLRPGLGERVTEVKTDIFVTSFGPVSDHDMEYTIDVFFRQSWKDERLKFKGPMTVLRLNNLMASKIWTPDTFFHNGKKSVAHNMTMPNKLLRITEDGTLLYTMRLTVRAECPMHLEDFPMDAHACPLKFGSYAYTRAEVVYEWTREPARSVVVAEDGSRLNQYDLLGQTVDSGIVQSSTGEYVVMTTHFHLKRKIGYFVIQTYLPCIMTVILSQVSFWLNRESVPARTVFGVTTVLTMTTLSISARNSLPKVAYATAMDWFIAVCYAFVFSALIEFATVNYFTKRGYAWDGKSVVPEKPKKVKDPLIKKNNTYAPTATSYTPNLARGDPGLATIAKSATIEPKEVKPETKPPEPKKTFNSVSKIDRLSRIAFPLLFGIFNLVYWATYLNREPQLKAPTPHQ
T2 sequence (P47870 25-512 partner limits assumed): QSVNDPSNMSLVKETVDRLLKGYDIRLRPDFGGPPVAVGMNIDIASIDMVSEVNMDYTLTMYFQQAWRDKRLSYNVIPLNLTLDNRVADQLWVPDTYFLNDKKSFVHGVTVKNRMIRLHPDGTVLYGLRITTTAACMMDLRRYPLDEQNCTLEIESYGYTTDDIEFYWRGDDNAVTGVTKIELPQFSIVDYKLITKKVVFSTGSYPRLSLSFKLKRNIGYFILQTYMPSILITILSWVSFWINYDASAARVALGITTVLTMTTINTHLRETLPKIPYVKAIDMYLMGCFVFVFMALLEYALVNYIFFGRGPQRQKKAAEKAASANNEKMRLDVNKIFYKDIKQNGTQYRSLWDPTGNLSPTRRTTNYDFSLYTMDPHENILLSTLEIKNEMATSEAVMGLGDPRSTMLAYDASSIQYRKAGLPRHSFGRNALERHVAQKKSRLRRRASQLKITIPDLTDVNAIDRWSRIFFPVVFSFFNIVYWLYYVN
T2 sequence (P18507 40-475): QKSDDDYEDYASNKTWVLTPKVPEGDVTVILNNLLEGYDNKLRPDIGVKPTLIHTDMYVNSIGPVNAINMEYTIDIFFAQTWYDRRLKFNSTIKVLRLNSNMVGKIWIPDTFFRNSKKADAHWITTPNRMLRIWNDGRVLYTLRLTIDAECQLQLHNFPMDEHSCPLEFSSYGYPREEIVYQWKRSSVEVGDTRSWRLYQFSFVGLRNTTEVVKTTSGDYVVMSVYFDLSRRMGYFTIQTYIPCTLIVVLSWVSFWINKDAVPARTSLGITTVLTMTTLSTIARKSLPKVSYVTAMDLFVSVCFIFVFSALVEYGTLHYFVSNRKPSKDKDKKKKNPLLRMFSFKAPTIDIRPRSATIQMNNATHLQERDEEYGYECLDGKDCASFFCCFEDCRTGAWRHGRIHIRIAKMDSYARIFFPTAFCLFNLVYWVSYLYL
T1 sequence (P47869 29-451): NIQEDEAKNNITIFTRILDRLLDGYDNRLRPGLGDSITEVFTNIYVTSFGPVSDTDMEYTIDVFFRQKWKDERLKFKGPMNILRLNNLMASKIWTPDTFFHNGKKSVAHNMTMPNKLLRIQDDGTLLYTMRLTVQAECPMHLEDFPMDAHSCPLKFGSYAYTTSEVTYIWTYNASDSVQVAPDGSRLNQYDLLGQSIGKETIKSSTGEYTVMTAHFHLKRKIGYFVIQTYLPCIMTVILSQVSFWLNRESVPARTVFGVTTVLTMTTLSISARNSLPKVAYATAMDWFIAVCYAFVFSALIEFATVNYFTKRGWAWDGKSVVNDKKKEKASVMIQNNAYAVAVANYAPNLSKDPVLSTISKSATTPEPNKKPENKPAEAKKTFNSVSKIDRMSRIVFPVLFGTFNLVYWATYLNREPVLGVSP
T1 sequence (P28472 26-473 partner): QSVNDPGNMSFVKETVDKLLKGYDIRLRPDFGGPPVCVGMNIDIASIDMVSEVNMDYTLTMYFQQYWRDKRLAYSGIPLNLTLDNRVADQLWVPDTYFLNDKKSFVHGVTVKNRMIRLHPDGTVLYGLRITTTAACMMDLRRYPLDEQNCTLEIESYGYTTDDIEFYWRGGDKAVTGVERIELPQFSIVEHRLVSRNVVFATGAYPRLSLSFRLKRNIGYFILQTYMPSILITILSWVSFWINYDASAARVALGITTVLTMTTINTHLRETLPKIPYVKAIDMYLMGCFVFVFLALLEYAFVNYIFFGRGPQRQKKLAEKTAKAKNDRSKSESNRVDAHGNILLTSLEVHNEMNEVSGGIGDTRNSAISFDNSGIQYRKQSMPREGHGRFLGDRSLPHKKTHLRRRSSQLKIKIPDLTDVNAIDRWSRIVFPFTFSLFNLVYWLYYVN
T1 sequence (P18507 40-475): as the sequence (P18507 40-475) above
T3 sequence (P47869 29-451): as the sequence (P47869 29-451) above
T3 sequence (P28472 26-473 partner): as the sequence (P28472 26-473 partner) above
T3 sequence (P18507 40-475): as the sequence (P18507 40-475) above

Row | Compound | Relative Potentiation for GABAA2 (GABAA receptor α2β3γ2) | Relative Potentiation for GABAA1 (GABAA receptor α1β2γ2) | Ki [1] | Relative Potentiation for GABAA1 (GABAA receptor α1β2γ2; listed as 9-amino-2-cyclobutyl-5-(2,4-dimethoxypyrimidin-5-yl)-2,3-dihydro-1H-pyrrolo[3,4-) | spontaneous EEG across a range of oscillation frequencies [2] | spontaneous EEG at gamma frequencies [2]
1 | Nc1c2c(nc3c(-c4cc(F)ccc4F)cccc13)CN(C1CC1)C2=O [Example 112, 9-Amino-2-cyclopropyl-5-(2,5-difluorophenyl)-2,3-dihydropyrrolo[3,4-b]quinolin-1-one] | 0.13 | −0.034 | 6.83 nM |  |  | 
2 | Nc1c2c(nc3c(-c4c(F)cccc4F)cccc13)CN(C1CC1)C2=O [Example 114, 9-Amino-2-cyclopropyl-5-(2,6-difluorophenyl)-2,3-dihydropyrrolo[3,4-b]quinolin-1-one] | 0.13 | −0.058 | 3.5 nM |  |  | 
3 | COc1ccc(-c2cccc3c(N)c4c(nc23)CN(C2CC2)C4=O)c(F)c1 [Example 115, 9-Amino-2-cyclopropyl-5-(2-fluoro-4-methoxyphenyl)-2,3-dihydropyrrolo[3,4-b]quinolin-1-one] | 0.12 | −0.05 | 14.5 nM |  |  | 
4 | COc1ncc(-c2cccc3c(N)c4c(nc23)CN(C2CCC2)C4=O)c(OC)n1 [Example 123, 9-Amino-2-cyclobutyl-5-(2,4-dimethoxypyrimidin-5-yl)-2,3-dihydropyrrolo[3,4-b]quinolin-1-one] | 0.44 | 0.13 | 4.23 nM | 0.12 |  | 
5 | Nc1c2c(nc3c(-c4ccccc4F)cccc13)CN(C1CCC1)C2=O [Example 124, 9-Amino-2-cyclobutyl-5-(2-fluorophenyl)-2,3-dihydropyrrolo[3,4-b]quinolin-1-one] | 0.14 | −0.016 | 0.945 nM |  |  | 
6 | COc1ccc(-c2cccc3c(N)c4c(nc23)CN(C2CCCC2)C4=O)cn1 [Example 147, 9-Amino-2-cyclopentyl-5-(6-methoxypyridin-3-yl)-2,3-dihydropyrrolo[3,4-b]quinolin-1-one] | 0.23 | 0.016 | 31.6 nM |  |  | 
7 | COc1ncccc1-c1c(F)ccc2c(N)c3c(nc12)CN([C@H]1CCOC1)C3=O [Example 170, 9-Amino-6-fluoro-5-(2-methoxypyridin-3-yl)-2-(S)-tetrahydrofuran-3-yl-2,3-dihydropyrrolo[3,4-b]quinolin-1-one] | 0.19 | −0.14 | 5.68 nM |  |  | 
8 | O=C1Nc2ccc(Cl)cc2C(c2ccccc2Cl)=NC1O (stereo not drawn) [Lorazepam] |  |  |  |  | broad changes | 
9 | Cc1ccc(-c2nc3ccc(C)cn3c2CC(=O)N(C)C)cc1 [zolpidem] |  |  |  |  |  | no significant increase
